Measurements reported in PMC7441158 (Nature Communications, 2020).

Legend:
[1] = Half-life of native and glycosylated GLP-1 isoforms in rats; details: anesthetized male Wistar rats, i.v. bolus 20 nmol/kg; for half-life t1/2 in circulation: n = 8 per group, total GLP-1 in plasma (assay against amidated C-terminus: intact 7–36 amide and metabolites), one-phase decay, linear model on ln-transformed data; for detectability in circulation after injection (in words): total GLP-1 assay, plasma sampled up to 60 min
Description: Male Wistar rats (≈250 g) were obtained from Janvier (Saint Berthevin Cedex, France) and housed in pairs under standard conditions with ad libitum access to chow and water. Rats were acclimatized for at least 1 week before the study. Studies were carried out on two occasions, matching on each occasion the number of rats in each group, while at the same time avoiding rats from the same cage receiving the same test solution. […] On the day of study, non-fasted rats were anesthetized by a subcutaneous injection with Hypnorm/Midazolam (0.3 ml per 100 g body weight) and placed on a heated operating table (37 °C). The abdominal cavity was opened by a midline incision and a plastic catheter was inserted in the portal vein. Blood was collected (∼300 µl per timepoint) through the catheter into ice cold EDTA-coated tubes that were immediately placed one ice. Samples were collected at timepoint −5, 0, 1, 2, 5, 10, 15, 25, 45, and 60 min. In between samples, ∼200 µL PBS were injected to flush the catheter and replace lost fluid. […] At end of study, rats were sacrificed by diaphragm perforation.
Only data points represented by n > 4 were included in the analysis. To test the difference in rate constant (k), a multiple linear model (lm) was fitted to the pooled data with glycoform set as interaction (lm, Concentration ∼ Timepoint * Glycoform).

[2] = intact GLP-1 (7–36 amide); cited from earlier work
[3] = cited from earlier work
[4] = tested on: dipeptidyl peptidase IV (DPP-IV); test: DPP-IV (R&D Systems) in 50 mM Tris, pH 8.0; details: 37 °C, up to 24 h
neprilysin (NEP) [5] = test: NEP (R&D Systems) in 50 mM Tris, 0.05% Brij-35, pH 9.0; details: 37 °C, up to 24 h
neprilysin (NEP) [6] = target: T1, neprilysin (NEP) (Homo sapiens, UniProt P08473); test: In vitro degradation by neprilysin, MALDI-TOF timecourse assay; format: in vitro ADME; details: sialylated ST O-glycan structure, 15 µM peptide, 37 °C, pH 9.0, NEP 20 ng/μL (PYY), 150 pg/μL (GAL)
T1 construct: purchased R&D Systems
T1 sequence (P08473 whole entry, species assumed): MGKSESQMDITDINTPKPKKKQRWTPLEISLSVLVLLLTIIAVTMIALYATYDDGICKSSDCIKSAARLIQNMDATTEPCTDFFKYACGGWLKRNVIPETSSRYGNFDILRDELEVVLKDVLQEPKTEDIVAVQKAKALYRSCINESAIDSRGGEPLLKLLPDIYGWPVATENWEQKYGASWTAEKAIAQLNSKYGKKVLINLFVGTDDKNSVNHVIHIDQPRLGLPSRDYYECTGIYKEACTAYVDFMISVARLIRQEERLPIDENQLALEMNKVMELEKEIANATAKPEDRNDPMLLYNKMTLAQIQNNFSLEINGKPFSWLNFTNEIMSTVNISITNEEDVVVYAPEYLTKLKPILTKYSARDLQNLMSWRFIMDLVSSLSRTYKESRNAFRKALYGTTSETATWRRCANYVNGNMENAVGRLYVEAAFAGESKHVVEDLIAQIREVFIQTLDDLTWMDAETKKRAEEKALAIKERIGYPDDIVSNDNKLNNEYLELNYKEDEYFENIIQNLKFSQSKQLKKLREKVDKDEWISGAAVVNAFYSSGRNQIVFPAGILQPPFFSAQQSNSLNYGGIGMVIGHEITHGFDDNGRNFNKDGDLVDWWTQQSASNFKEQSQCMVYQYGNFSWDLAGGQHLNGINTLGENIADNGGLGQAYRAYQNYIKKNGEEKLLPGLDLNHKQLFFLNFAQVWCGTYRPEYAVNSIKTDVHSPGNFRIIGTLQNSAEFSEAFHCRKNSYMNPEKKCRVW

| not cleaved (neprilysin (NEP) [5]) | Molecule | half-life t1/2 in circulation [1] | detectability in circulation after injection (in words) [1] | also measured |
| --- | --- | --- | --- | --- |
| – | CC[C@H](C)[C@H](NC(=O)[C@H](Cc1ccccc1)NC(=O)[C@H](CCC(=O)O)NC(=O)[C@H](CCCCN)NC(=O)[C@H](C)NC(=O)[C@H](C)NC(=O)[C@H](CCC(N)=O)NC(=O)CNC(=O)[C@H](CCC(=O)O)NC(=O)[C@H](CC(C)C)NC(=O)[C@H](Cc1ccc(O)cc1)NC(=O)[C@H](CO)NC(=O)[C@H](CO)NC(=O)[C@@H](NC(=O)[C@H](CC(=O)O)NC(=O)[C@H](CO)NC(=O)[C@@H](NC(=O)[C@H](Cc1ccccc1)NC(=O)[C@@H](NC(=O)CNC(=O)[C@H](CCC(=O)O)NC(=O)[C@H](C)NC(=O)[C@@H](N)Cc1c[nH]cn1)[C@@H](C)O)[C@@H](C)O[C@H]1O[C@H](CO)[C@H](O)[C@H](O[C@@H]2O[C@H](CO)[C@H](O)[C@H](O[C@]3(C(=O)O)C[C@H](O)[C@@H](NC(C)=O)[C@H]([C@H](O)[C@H](O)CO)O3)[C@H]2O)[C@H]1NC(C)=O)C(C)C)C(=O)N[C@@H](C)C(=O)N[C@@H](Cc1c[nH]c2ccccc12)C(=O)N[C@@H](CC(C)C)C(=O)N[C@H](C(=O)N[C@@H](CCCCN)C(=O)NCC(=O)N[C@@H](CCCNC(=N)N)C(N)=O)C(C)C [GLP-1 ST] | 22.7 min | readily detectable in circulation even after 60 min | – |
| – | CC[C@H](C)[C@H](NC(=O)[C@H](Cc1ccccc1)NC(=O)[C@H](CCC(=O)O)NC(=O)[C@H](CCCCN)NC(=O)[C@H](C)NC(=O)[C@H](C)NC(=O)[C@H](CCC(N)=O)NC(=O)CNC(=O)[C@H](CCC(=O)O)NC(=O)[C@H](CC(C)C)NC(=O)[C@H](Cc1ccc(O)cc1)NC(=O)[C@H](CO)NC(=O)[C@H](CO)NC(=O)[C@@H](NC(=O)[C@H](CC(=O)O)NC(=O)[C@H](CO)NC(=O)[C@@H](NC(=O)[C@H](Cc1ccccc1)NC(=O)[C@@H](NC(=O)CNC(=O)[C@H](CCC(=O)O)NC(=O)[C@H](C)NC(=O)[C@@H](N)Cc1c[nH]cn1)[C@@H](C)O)[C@@H](C)O)C(C)C)C(=O)N[C@@H](C)C(=O)N[C@@H](Cc1c[nH]c2ccccc12)C(=O)N[C@@H](CC(C)C)C(=O)N[C@H](C(=O)N[C@@H](CCCCN)C(=O)NCC(=O)N[C@@H](CCCNC(=N)N)C(N)=O)C(C)C [GLP-1, glucagon-like peptide 1, reference compound] | 2.7 min | undetectable after the 15 min timepoint | half-life in circulation, literature [2]: ~ 2 min |
| −: not susceptible to degradation | HAEGTFTSDVSSYLEGQAAKEFIAWLVKGR | – | – | fragment found [3]: 9–36 amide, major; not cleaved [4]: −: not susceptible to degradation |
| −: not susceptible to degradation | HSDGTFTSELSRLREGARLQRLLQGLV | – | – | – |
| −: not susceptible to degradation | HSDAVFTDNYTRLRKQMAVKKYLNSILN | – | – | – |
| – | CC(=O)N[C@H]1[C@@H](OC[C@H](NC(=O)[C@H](Cc2ccccc2)NC(=O)[C@H](CO)NC(=O)[C@H](CCCNC(=N)N)NC(=O)[C@H](Cc2c[nH]cn2)NC(=O)[C@H](CC(N)=O)NC(=O)CNC(=O)[C@@H](NC(=O)[C@H](C)NC(=O)[C@H](Cc2c[nH]cn2)NC(=O)[C@@H]2CCCN2C(=O)CNC(=O)[C@H](CC(C)C)NC(=O)[C@H](CC(C)C)NC(=O)[C@H](Cc2ccc(O)cc2)NC(=O)CNC(=O)[C@H](C)NC(=O)[C@H](CO)NC(=O)[C@H](CC(N)=O)NC(=O)[C@H](CC(C)C)NC(=O)[C@@H](NC(=O)[C@H](Cc2c[nH]c3ccccc23)NC(=O)CN)[C@@H](C)O)C(C)C)C(=O)N[C@@H](CC(=O)O)C(=O)N[C@@H](CCCCN)C(=O)N[C@@H](CC(N)=O)C(=O)NCC(=O)N[C@@H](CC(C)C)C(=O)N[C@H](C(=O)N[C@@H](CO)C(=O)O)[C@@H](C)O)O[C@H](CO)[C@H](O)[C@@H]1O[C@@H]1O[C@H](CO)[C@H](O)[C@H](O[C@]2(C(=O)O)C[C@H](O)[C@@H](NC(C)=O)[C@H]([C@H](O)[C@H](O)CO)O2)[C@H]1O [Galanin ST] | – | – | full-length peptide after incubation with NEP (in words) (neprilysin (NEP) [6]): readily detectable after 24 h |
